{"source": "patent US10137113B2", "about": "“5-HT4 receptor agonist as a prokinetic agent” (RaQualia Pharma Inc., priority 2011, dated 2018)", "key": {"[1]": {"test_system": "gastric antrum of conscious dogs", "assay": "Gastric antral motility by implanted force transducers, fasted conscious dogs, oral dosing", "type": "in vivo, dog", "procedure": "(§1) GI motility was assessed by processing the signals from the force transducers implanted in dogs prepared for investigation of motility. Briefly, dogs were anesthetized with isoflurane and the abdominal cavity was opened under aseptic conditions. Extraluminal force transducers (F-12IS, Star Medical, Tokyo) were sutured onto the seromuscular layer of the gastric antrum, the gastric body, the duodenum, and the proximal colon. After the surgery, protective jackets were placed on the dogs and they were housed in individual cages. The dogs were fasted overnight before the experiment and placed in the shield room. The motility was measured with a telemetry system (GTS-800, Star Medical, Tokyo) and data acquired into a personal computer with the acquisition software (Eight Star, Star Medical, Tokyo). After confirmation of interdigestive migrating complex (IMC), the test drugs were administered orally. Gut motility was then recorded more than 5 hours (hrs). To measure the gastric motility quantitatively, motor indexes that represent areas of contractions were calculated. The signals from the force transducer were acquired on a personal computer and analyzed by processing software (Analyze II; StarMedical). In the fasted state, the areas surrounded by the contraction curve and the baseline were determined every 2 hrs after administration. For standardization, the calculated areas were divided by the IMC peak height before administration, and they were used as the motor index (MI). Results are presented as the mean+/− standard error of the mean (S.E.M., N=4-5). Statistical analysis was performed with Dunnett's multiple comparison test using GraphPad Prism (GraphPad Software, Inc.)."}, "[2]": {"test_system": "proximal colon of conscious dogs", "assay": "Proximal colon motility by implanted force transducers, fasted conscious dogs, oral dosing", "type": "in vivo", "settings": "dog", "procedure": "as §1"}, "[3]": {"test_system": "gastric antrum and duodenum of conscious dogs", "assay": "Gastro-duodenum contractions by implanted force transducers, fasted conscious dogs, oral dosing", "type": "in vivo", "settings": "dog, 0.3 mg/kg (dose that enhances proximal colon motility), FIG. 5", "method": "GI motility was assessed by processing the signals from the force transducers implanted in dogs prepared for investigation of motility. Briefly, dogs were anesthetized with isoflurane and the abdominal cavity was opened under aseptic conditions. Extraluminal force transducers (F-12IS, Star Medical, Tokyo) were sutured onto the seromuscular layer of the gastric antrum, the gastric body, the duodenum, and the proximal colon. After the surgery, protective jackets were placed on the dogs and they were housed in individual cages. The dogs were fasted overnight before the experiment and placed in the shield room. The motility was measured with a telemetry system (GTS-800, Star Medical, Tokyo) and data acquired into a personal computer with the acquisition software (Eight Star, Star Medical, Tokyo). […] Gut motility was then recorded more than 5 hours (hrs). To measure the gastric motility quantitatively, motor indexes that represent areas of contractions were calculated. The signals from the force transducer were acquired on a personal computer and analyzed by processing software (Analyze II; StarMedical). In the fasted state, the areas surrounded by the contraction curve and the baseline were determined every 2 hrs after administration. For standardization, the calculated areas were divided by the IMC peak height before administration, and they were used as the motor index (MI). […]"}}}
{"smiles": "CCOc1cc(N)c(Cl)cc1C(=O)NCC1CN(Cc2ccc(F)cc2)CCO1", "note": "(stereo not drawn) [mosapride]", "values": [{"measurement": "gastric antral motility", "setting": "[1]; dog, fasted, oral, 3 mg/kg, FIG. 3", "value": "tended to increase the antral motility"}]}
{"smiles": "COCCCN1CCC(NC(=O)c2cc(Cl)c(N)c3c2OCC3)CC1", "note": "[prucalopride]", "values": [{"measurement": "gastric antral motility", "setting": "[1]; dog, fasted, oral, 0.1 mg/kg, FIG. 5", "value": "stimulated gastric antral motility"}, {"measurement": "contractions of proximal colon", "setting": "[2]; 0.1 mg/kg, FIG. 5", "value": "did not affect contractions of proximal colon"}, {"measurement": "colonic motor activity", "setting": "[2]; 0.3 mg/kg, FIG. 5", "value": "enhanced the colonic motor activity"}, {"measurement": "gastro-duodenum contractions", "setting": "[3]", "value": "induced excessive gastro-duodenum contractions"}]}
{"smiles": "COc1cc(N)c(Cl)cc1C(=O)NC1CCN(CCCOc2ccc(F)cc2)CC1OC", "note": "(stereo not drawn) [Cisapride, cisapride]", "values": [{"measurement": "gastric antral motility", "setting": "[1]; dog, fasted, oral, 1 mg/kg, FIG. 2", "value": "significantly increased gastric antral motility"}]}
{"smiles": "O=C(O)C1(CN2CCC(COc3noc4cccc(OCC(F)(F)F)c34)CC2)CCOCC1", "note": "[Compound A, 4-{[4-({[4-(2,2,2-trifluoroethoxy)-1,2-benzisoxazol-3-yl]-oxy}methyl)piperidin-1-yl]methyl}tetrahydro-2H-pyran-4-carboxylic acid]", "values": [{"measurement": "effects on GI motility / potency relative to other 5-HT4 agonists (cisapride, mosapride, tegaserod)", "setting": "[1]; dog GI motility models", "value": "more than 100 times"}, {"measurement": "potency relative to cisapride in enhancing gastric antral motility", "setting": "[1]; dog, fasted, oral", "value": "approximately 1000 times"}, {"measurement": "minimum effective dose, change in motor index (MI) of gastric antral motility", "setting": "[1]; dog, fasted, oral, 0 to 2 hour period after administration, statistical significance (Dunnett)", "value": 1, "unit": "micro g/kg"}, {"measurement": "gastric antral motor activity", "setting": "[1]; dog, fasted, oral, 0.1-10 micro g/kg, FIG. 1", "value": "increased the gastric antral motor activity in dose dependent manner"}, {"measurement": "amplitude and frequency of contractions in the proximal colon", "setting": "[2]; 1 micro g/kg, FIG. 4", "value": "enhanced"}, {"measurement": "occurrence of giant migrating contractions", "setting": "[2]; after treatment", "value": "facilitated the occurrence of giant migrating contractions"}]}
